The values that follow come from US20100286076A1, “ECTOPARASITICIDAL METHODS AND FORMULATIONS” (priority 2009, published 2010).

Where two headings read alike, the source gives them in different places.

One assay concerns House Fly. Nature of the assay: Adult House Fly Assay (AhsF), feeding on compound-soaked dental wicks, 24 h mortality. The arrangement: species or system Musca domestica. Conditions: 24 h, read-out: Potency (24 h EC50 μM). As for the experimental part:
Adult Stable or House Fly Assay (ASF, AhsF). This assay is conducted essentially as described in White, W. H., S. M. Bauer, X. Zhao et al., Comparison of in vitro and in vivo ectoparasiticide activity of an experimental benzimidazole-carbamate with permethrin and amitraz, J. Med. Entomol. 42, 207-211 (2005); and White, W. H., C. M. McCoy, J. A. Meyer et al., Knockdown and mortality comparisons among spinosad-, imidacloprid-, and methomyl-containing baits against susceptible Musca domestica (Diptera: Muscidae) under laboratory conditions, J. Econ. Entomol. 100, 155-163 (2007).
Test material is formulated in DMSO at 10 mM. Doubling dilutions in like solvent are made to yield 10 testing levels. Materials are diluted in either bovine serum (stable flies) or 5% glucose solution (house flies) to obtain desired exposure concentrations from 200-0.39 μM. Approximately 3 ml of diluted test material is placed into a test tube (n=3 per test level) and a dental wick is used to absorb fluid. One dental wick is placed into a small weigh boat inside of a 100 mm Petri dish. Approximately 10 mixed-sex adult flies are anesthetized using carbon dioxide and counted into each dish. Dishes are incubated at 27° C. and 50-70% relative humidity. Flies recover from anesthesia and feed on compound-soaked dental wicks. After 24 h, live/dead flies are enumerated. Nonlinear regression is used to model dose-mortality relationship and obtain relative potency (LD50) data compared to contemporaneous controls (solvent-only or permethrin).

The subject of assay [1] is adult cat flea, Ctenocephalides felis. Particulars: dogs, historical data, not contemporaneous controls, cited from earlier work.

As for `N#Cc1nn(-c2c(Cl)cc(C(F)(F)F)cc2Cl)c(N)c1[S+]([O-])C(F)(F)F` (centres unmarked) [Fipronil, reference compound], in the assay on House Fly (Musca domestica), the EC50 was 0.97 µM.

Take Spinosad: the “geometric mean percent flea reduction, Day 7” value in assay [1] (Day 7) is recorded as 100%. Besides, the “geometric mean percent flea reduction, Day 14” value in assay [1] (Day 14) is recorded as 99.6%. Further, the “geometric mean percent flea reduction, Day 21” value in assay [1] (Day 21) is listed as 100%. Also, the “geometric mean percent flea reduction, Day 30” value in assay [1] (Day 30) is on record as 97.8%. In assay [1] (Day 37), the “geometric mean percent flea reduction, Day 37” value is 91.1%. For the same compound, in assay [1] (Knockdown), the “geometric mean percent flea reduction, Knockdown” value is 100%. In the assay on House Fly (adult house flies, 5% glucose solution), the EC50 is 12 µM.

Usually EC50 stands for the concentration at which the effect is half-maximal.
